Experimental data: publication PMC3445516 (PLoS ONE, 2012)

Columns and labels:
Experiment in all cases: Ambit kinase profiling, competition binding
EPHA2 = target: T1, EPHA2 (Homo sapiens, UniProt P29317); settings: compound concentration 10 uM, read-out: Percent Competition
T1 construct: purchased Ambit Biosciences (KINOMEscan)
From the text: (§1) Supplement pone.0044653.s004.xls, sheet "Compound 122" | column: Percent Competition

PIM1 = target: T2, PIM1 (Homo sapiens, UniProt P11309); settings: compound concentration 10 uM, read-out: Percent Competition
T2 construct: purchased Ambit Biosciences (KINOMEscan)
From the text: as §1

RIOK3 = target: T3, RIOK3 (Homo sapiens, UniProt O14730); settings: compound concentration 10 uM, read-out: Percent Competition
T3 construct: purchased Ambit Biosciences (KINOMEscan)
From the text: as §1

CSNK2A2 = target: T4, CSNK2A2 (Homo sapiens, UniProt P19784); settings: compound concentration 10 uM, read-out: Percent Competition
T4 construct: purchased Ambit Biosciences (KINOMEscan)
From the text: as §1

PDGFRB = target: T5, PDGFRB (Homo sapiens, UniProt P09619); settings: compound concentration 10 uM, read-out: Percent Competition
T5 construct: purchased Ambit Biosciences (KINOMEscan)
From the text: as §1

MLK1 = target: T6, MLK1 (Homo sapiens, UniProt P80192); settings: compound concentration 10 uM, read-out: Percent Competition
T6 construct: purchased Ambit Biosciences (KINOMEscan)
From the text: as §1

CDK9 = target: T7, CDK9 (Homo sapiens, UniProt P50750); settings: compound concentration 10 uM, read-out: Percent Competition
T7 construct: purchased Ambit Biosciences (KINOMEscan)
From the text: as §1

AURKB = target: T8, AURKB (Homo sapiens, UniProt Q96GD4); settings: compound concentration 10 uM, read-out: Percent Competition
T8 construct: purchased Ambit Biosciences (KINOMEscan)
From the text: as §1

CDKL2 = target: T9, CDKL2 (Homo sapiens, UniProt Q92772); settings: compound concentration 10 uM, read-out: Percent Competition
T9 construct: purchased Ambit Biosciences (KINOMEscan)
From the text: as §1

FLT3 = target: T10, FLT3 (Homo sapiens, UniProt P36888); settings: compound concentration 10 uM, read-out: Percent Competition
T10 construct: purchased Ambit Biosciences (KINOMEscan)
From the text: as §1

TRKA = target: T11, TRKA (Homo sapiens, UniProt P04629); settings: compound concentration 10 uM, read-out: Percent Competition
T11 construct: purchased Ambit Biosciences (KINOMEscan)
From the text: as §1

KIT(V559D,V654A) = target: T12, KIT(V559D,V654A) (Homo sapiens, UniProt P10721, V559D/V654A); settings: compound concentration 10 uM, read-out: Percent Competition
T12 construct: purchased Ambit Biosciences (KINOMEscan)
From the text: as §1

[1] = target: T13, JAK3(JH1domain-catalytic) (Homo sapiens, UniProt P52333); settings: compound concentration 10 uM, read-out: Percent Competition
T13 construct: JAK3(JH1domain-catalytic); purchased Ambit Biosciences (KINOMEscan)
From the text: as §1

FGFR4 = target: T14, FGFR4 (Homo sapiens, UniProt P22455); settings: compound concentration 10 uM, read-out: Percent Competition
T14 construct: purchased Ambit Biosciences (KINOMEscan)
From the text: as §1

MAP4K5 = target: T15, MAP4K5 (Homo sapiens, UniProt Q9Y4K4); settings: compound concentration 10 uM, read-out: Percent Competition
T15 construct: purchased Ambit Biosciences (KINOMEscan)
From the text: as §1

TXK = target: T16, TXK (Homo sapiens, UniProt P42681); settings: compound concentration 10 uM, read-out: Percent Competition
T16 construct: purchased Ambit Biosciences (KINOMEscan)
From the text: as §1

PIK3CG = target: T17, PIK3CG (Homo sapiens, UniProt P48736); settings: compound concentration 10 uM, read-out: Percent Competition
T17 construct: purchased Ambit Biosciences (KINOMEscan)
From the text: as §1

FLT3(D835H) = target: T18, FLT3(D835H) (Homo sapiens, UniProt P36888, D835H); settings: compound concentration 10 uM, read-out: Percent Competition
T18 construct: purchased Ambit Biosciences (KINOMEscan)
From the text: as §1

INSRR = target: T19, INSRR (Homo sapiens, UniProt P14616); settings: compound concentration 10 uM, read-out: Percent Competition
T19 construct: purchased Ambit Biosciences (KINOMEscan)
From the text: as §1

PIK3CD = target: T20, PIK3CD (Homo sapiens, UniProt O00329); settings: compound concentration 10 uM, read-out: Percent Competition
T20 construct: purchased Ambit Biosciences (KINOMEscan)
From the text: as §1

HIPK1 = target: T21, HIPK1 (Homo sapiens, UniProt Q86Z02); settings: compound concentration 10 uM, read-out: Percent Competition
T21 construct: purchased Ambit Biosciences (KINOMEscan)
From the text: as §1

MKNK1 = target: T22, MKNK1 (Homo sapiens, UniProt Q9BUB5); settings: compound concentration 10 uM, read-out: Percent Competition
T22 construct: purchased Ambit Biosciences (KINOMEscan)
From the text: as §1

AKT3 = target: T23, AKT3 (Homo sapiens, UniProt Q9Y243); settings: compound concentration 10 uM, read-out: Percent Competition
T23 construct: purchased Ambit Biosciences (KINOMEscan)
From the text: as §1

NEK6 = target: T24, NEK6 (Homo sapiens, UniProt Q9HC98); settings: compound concentration 10 uM, read-out: Percent Competition
T24 construct: purchased Ambit Biosciences (KINOMEscan)
From the text: as §1

[2] = target: T25, RPS6KA6(Kin.Dom.1-N-terminal) (Homo sapiens, UniProt Q9UK32); settings: compound concentration 10 uM
T25 construct: RPS6KA6(Kin.Dom.1-N-terminal); purchased Ambit Biosciences (KINOMEscan)
From the text: as §1

MAP3K4 = target: T26, MAP3K4 (Homo sapiens, UniProt Q9Y6R4); settings: compound concentration 10 uM, read-out: Percent Competition
T26 construct: purchased Ambit Biosciences (KINOMEscan)
From the text: as §1

ASK1 = target: T27, ASK1 (Homo sapiens, UniProt Q99683); settings: compound concentration 10 uM, read-out: Percent Competition
T27 construct: purchased Ambit Biosciences (KINOMEscan)
From the text: as §1

YSK1 = target: T28, YSK1 (Homo sapiens, UniProt O00506); settings: compound concentration 10 uM, read-out: Percent Competition
T28 construct: purchased Ambit Biosciences (KINOMEscan)
From the text: as §1

AAK1 = target: T29, AAK1 (Homo sapiens, UniProt Q2M2I8); settings: compound concentration 10 uM, read-out: Percent Competition
T29 construct: purchased Ambit Biosciences (KINOMEscan)
From the text: as §1

ABL1 = target: T30, ABL1 (Homo sapiens, UniProt P00519); settings: compound concentration 10 uM, read-out: Percent Competition
T30 construct: purchased Ambit Biosciences (KINOMEscan)
From the text: as §1

AURKA = target: T31, AURKA (Homo sapiens, UniProt O14965); settings: compound concentration 10 uM, read-out: Percent Competition
T31 construct: purchased Ambit Biosciences (KINOMEscan)
From the text: as §1

PLK1 = target: T32, PLK1 (Homo sapiens, UniProt P53350); settings: compound concentration 10 uM, read-out: Percent Competition
T32 construct: purchased Ambit Biosciences (KINOMEscan)
From the text: as §1

KIT(D816V) = target: T33, KIT(D816V) (Homo sapiens, UniProt P10721, D816V); settings: compound concentration 10 uM, read-out: Percent Competition
T33 construct: purchased Ambit Biosciences (KINOMEscan)
From the text: as §1

MINK = target: T34, MINK (Homo sapiens, UniProt Q8N4C8); settings: compound concentration 10 uM, read-out: Percent Competition
T34 construct: purchased Ambit Biosciences (KINOMEscan)
From the text: as §1

NDR2 = target: T35, NDR2 (Homo sapiens, UniProt Q9Y2H1); settings: compound concentration 10 uM, read-out: Percent Competition
T35 construct: purchased Ambit Biosciences (KINOMEscan)
From the text: as §1

PKN2 = target: T36, PKN2 (Homo sapiens, UniProt Q16513); settings: compound concentration 10 uM, read-out: Percent Competition
T36 construct: purchased Ambit Biosciences (KINOMEscan)
From the text: as §1

MAP4K3 = target: T37, MAP4K3 (Homo sapiens, UniProt Q8IVH8); settings: compound concentration 10 uM
T37 construct: purchased Ambit Biosciences (KINOMEscan)
From the text: as §1

MAP3K3 = target: T38, MAP3K3 (Homo sapiens, UniProt Q99759); settings: compound concentration 10 uM, read-out: Percent Competition
T38 construct: purchased Ambit Biosciences (KINOMEscan)
From the text: as §1

MST1 = target: T39, MST1 (Homo sapiens, UniProt Q13043); settings: compound concentration 10 uM
T39 construct: purchased Ambit Biosciences (KINOMEscan)
From the text: as §1

NEK9 = target: T40, NEK9 (Homo sapiens, UniProt Q8TD19); settings: compound concentration 10 uM, read-out: Percent Competition
T40 construct: purchased Ambit Biosciences (KINOMEscan)
From the text: as §1

SRPK2 = target: T41, SRPK2 (Homo sapiens, UniProt P78362); settings: compound concentration 10 uM, read-out: Percent Competition
T41 construct: purchased Ambit Biosciences (KINOMEscan)
From the text: as §1

inhibition at 10 µM (EPHA2): < 50%
inhibition at 10 µM (PIM1): < 50%
inhibition at 10 µM (RIOK3): < 50%
inhibition at 10 µM (CSNK2A2): < 50%
inhibition at 10 µM (PDGFRB): < 50%
inhibition at 10 µM (MLK1): < 50%
inhibition at 10 µM (CDK9): < 50%
inhibition at 10 µM (AURKB): < 50%
inhibition at 10 µM (CDKL2): < 50%
inhibition at 10 µM (FLT3): < 50%
inhibition at 10 µM (TRKA): < 50%
inhibition at 10 µM (KIT(V559D,V654A)): < 50%
inhibition at 10 µM [1]: < 50%
inhibition at 10 µM (FGFR4): < 50%
inhibition at 10 µM (MAP4K5): < 50%
inhibition at 10 µM (TXK): < 50%
inhibition at 10 µM (PIK3CG): < 50%
inhibition at 10 µM (FLT3(D835H)): < 50%
inhibition at 10 µM (INSRR): < 50%
inhibition at 10 µM (PIK3CD): < 50%
inhibition at 10 µM (HIPK1): < 50%
inhibition at 10 µM (MKNK1): < 50%
inhibition at 10 µM (AKT3): < 50%
inhibition at 10 µM (NEK6): < 50%
Percent Competition [2]: <50%
inhibition at 10 µM (MAP3K4): < 50%
inhibition at 10 µM (ASK1): < 50%
inhibition at 10 µM (YSK1): < 50%
inhibition at 10 µM (AAK1): < 50%
inhibition at 10 µM (ABL1): < 50%
inhibition at 10 µM (AURKA): < 50%
inhibition at 10 µM (PLK1): < 50%
inhibition at 10 µM (KIT(D816V)): < 50%
inhibition at 10 µM (MINK): < 50%
inhibition at 10 µM (NDR2): < 50%
inhibition at 10 µM (PKN2): < 50%
Percent Competition (MAP4K3): <50%
inhibition at 10 µM (MAP3K3): < 50%
Percent Competition (MST1): <50%
inhibition at 10 µM (SRPK2): < 50%
SMILES: Fc1ccc(-c2c(-c3ccncc3)[nH]c3nccnc23)cc1 [RO1155697-000-005]
inhibition at 10 µM (NEK9): < 50%
